This is an account of results in US8518953B2, “Aminopyrimidines useful as inhibitors of protein kinases” (Vertex Pharmaceuticals Incorporated, priority 2007, dated 2013).

The IC50 is the concentration at which inhibition is half-maximal. The Ki is the dissociation constant of the complex between target and ligand, obtained from inhibition or displacement.

Assay [1] addresses T1, GSK3β TYR 216 (Homo sapiens, UniProt P49841).
T1 construct: western blotting of Jurkat cells dosed with the compounds; endogenous in cells; host or cells: Jurkat cells
Kind of assay: GSK3β p-TYR Inhibition Assay (western blotting of Jurkat cells). Format: cell-based. To be noted: western blot, read-out: GSK3b pTYR 216: IC50. On the procedure:
(§1) Compounds are screened for their ability to inhibit the phosphorylation of tyrosine (TYR) residues through the use of western blotting of Jurkat cells dosed with the compounds. The phosphorylation of the specific TYR residues tested are GSK3α TYR 279 and GSK3β TYR 216.
(§2) Jurkat cells are seeded at a density of 2×10^5 cells/well in a 12 well dish in starvation media (RPMI+1% FBS+P/S). Following starvation for 16 hours, the compound is dosed into each well at a final DMSO concentration of 0.3% and cells are incubated o/n at 37° C. 5% CO2. The next day, cells are spun down at 1500 rpm, washed with PBS, and lysed in 100 uL Laemli sample buffer with β-mercaptoethanol.
(§3) 15 microliters (uL) of cell lysates are loaded onto a 10% tris-glycine gel and run at 120 v for 2 hours or until dye front runs off of the gel. The protein is then transferred onto a PVDF membrane at 100 v for 60 min. PBST (PBS containing 0.1% Tween 20, such as 1 ml Tween per 1 L of PBS) is then made up and used for all washes and antibody incubations. The blot is blocked in 5% nonfat milk PBST for one hour.
(§4) The primary antibody (GSK-3α/β pTYR 279/216 at 1:1000 dilution Upstate cat#05-413) is then added in […] PBST overnight at 4° C. with gentle rocking. The blot is then washed in PBST for 5 min. This is then repeated 4 times. […]
In general terms: A western blot detects proteins with antibodies after separation by electrophoresis.

The target of assay [2] is T2, GSK-3β (AA 1-420) (Homo sapiens, UniProt P49841).
T2 construct: GSK-3β (AA 1-420)
Kind of assay: GSK-3 Inhibition Assay (standard coupled enzyme system). The class given is biochemical. To be noted: 20 μM ATP, 300 μM peptide, 20 nM GSK-3β, 30° C. The procedure:
Compounds of the present invention were screened for their ability to inhibit GSK-3β (AA 1-420) activity using a standard coupled enzyme system (Fox et al., Protein Sci. 1998, 7, 2249). Reactions were carried out in a solution containing 100 mM HEPES (pH 7.5), 10 mM MgCl2, 25 mM NaCl, 300 μM NADH, 1 mM DTT and 1.5% DMSO. Final substrate concentrations in the assay were 20 μM ATP (Sigma Chemicals, St Louis, Mo.) and 300 μM peptide (American Peptide, Sunnyvale, Calif.). Reactions were carried out at 30° C. and 20 nM GSK-3β. Final concentrations of the components of the coupled enzyme system were 2.5 mM phosphoenolpyruvate, 300 μM NADH, 30 μg/ml pyruvate kinase and 10 μg/ml lactate dehydrogenase.
An assay stock buffer solution was prepared containing all of the reagents listed above with the exception of ATP and the test compound of the present invention. The assay stock buffer solution (175 μl) was incubated in a 96 well plate with 5 μl of the test compound of the present invention at final concentrations spanning 0.002 μM to 30 μM at 30° C. for 10 min. […] Rates of reaction were obtained using a Molecular Devices Spectramax plate reader (Sunnyvale, Calif.) over 10 min at 30° C. The Ki values were determined from the rate data as a function of inhibitor concentration.

For assay [3], the target named is T3, GSK3α TYR 279 (Homo sapiens, UniProt P49840).
T3 construct: western blotting of Jurkat cells dosed with the compounds; endogenous in cells; host or cells: Jurkat cells
Kind of assay: GSK-3α p-TYR Inhibition Assay (western blotting of Jurkat cells). To be noted: western blot, read-out: GSK3a pTYR 279: IC50. Format: cell-based. The procedure: as §1, §2, §3, §4

The subject of assay [4] is β-catenin dependent TCF/LEF transcriptional activity. Description: β-Catenin Stabilization Protocol (β-lactamase reporter assay in Jurkat cells). Format: cell-based. To be noted: Homo sapiens, 460/530 ratio, read-out: Beta Catenin IC50. The source says: GSK-3 phosphorylation of β-catenin targets it to the proteosome for degradation. Inhibition of GSK-3 results in accumulation of β-catenin in the cytosol of cells which through interaction with the transcription factor TCF/LEF translocates to the nucleus and drives the transcription of Wnt-dependent genes. The assay is designed to determine the level of β-catenin dependent TCF/LEF transcriptional activity in a quantitative manner through the use of a β-lactamase reporter assay in Jurkat cells dosed with a compound.
Jurkat β-catenin cells are starved overnight in assay media (1% FBS, 1× Penstrep, RPMI) in the flask. The next day Jurkat β-catenin cells are seeded in 96 well flat bottom plates at a density of 50,000 cells/well in assay media in a volume of 100 ul. The compound is added to the well at a final DMSO concentration of 0.75% and incubated at 37° C. o/n. The next day, 20 uL of 6×CCF4 dye is added to the wells and incubated at room temperature for 1-2 hours. Plates are read on the Cytofluor 4000 series multiwell plate reader and the 460/530 ratio is determined.
(In general: A reporter such as luciferase makes a cellular process visible.)

The subject of assay [5] is rat brains after transient middle cerebral artery occlusion. To be noted: rat brains after transient MCAO; cited from earlier work.

T3 sequence (P49840 whole entry): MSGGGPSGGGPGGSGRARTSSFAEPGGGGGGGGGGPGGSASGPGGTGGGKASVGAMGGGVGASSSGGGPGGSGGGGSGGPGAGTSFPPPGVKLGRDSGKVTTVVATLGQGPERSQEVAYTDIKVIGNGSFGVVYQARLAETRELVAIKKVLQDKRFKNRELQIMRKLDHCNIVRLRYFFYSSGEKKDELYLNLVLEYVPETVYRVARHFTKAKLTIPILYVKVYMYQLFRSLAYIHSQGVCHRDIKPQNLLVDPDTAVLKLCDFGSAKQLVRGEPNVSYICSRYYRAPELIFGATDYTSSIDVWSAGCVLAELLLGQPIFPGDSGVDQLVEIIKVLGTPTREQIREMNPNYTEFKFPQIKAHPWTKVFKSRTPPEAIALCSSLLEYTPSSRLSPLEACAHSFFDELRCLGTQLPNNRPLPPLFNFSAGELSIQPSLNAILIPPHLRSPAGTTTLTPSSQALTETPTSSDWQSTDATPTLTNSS
T1 sequence (P49841 whole entry): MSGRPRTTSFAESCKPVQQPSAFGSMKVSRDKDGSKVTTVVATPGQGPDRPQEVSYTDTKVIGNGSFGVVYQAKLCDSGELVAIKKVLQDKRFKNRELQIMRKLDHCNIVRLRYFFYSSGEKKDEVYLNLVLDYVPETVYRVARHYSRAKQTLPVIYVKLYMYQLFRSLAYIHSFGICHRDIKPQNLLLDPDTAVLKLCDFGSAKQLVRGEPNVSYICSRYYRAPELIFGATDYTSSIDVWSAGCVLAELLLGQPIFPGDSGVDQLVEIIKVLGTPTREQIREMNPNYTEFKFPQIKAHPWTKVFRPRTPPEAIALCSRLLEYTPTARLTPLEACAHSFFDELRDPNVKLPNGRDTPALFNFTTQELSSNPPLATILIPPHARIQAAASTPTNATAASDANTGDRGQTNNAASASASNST
T2 sequence (P49841 whole entry, species assumed, the tested form may be a part): as the sequence (P49841 whole entry) above

For the compound `CCc1c(C)nc(-c2ccccc2Cl)nc1Nc1n[nH]c2ncc(F)cc12` [Compound I-2], the IC50 in assay [1] was determined as 30 nM; in assay [3], 2 nM; in assay [4] it was 940 nM. In addition, the Ki in assay [2] is < 5 nM.

On to “IGF-1: insulin growth factor-1, a known GSK-3 inhibitor”, for which the infarct size result in assay [5] was “reduced infarct size”.
